pIC50: −log10 of the molar value.
Key:
[1] = tested on: M-07e cell line stimulated by SCF; test: M-07e SCF-stimulated cell proliferation (CellTiter-Glo); format: cell-based; conditions: 72 h, 100 ng/ml SCF, three days, luminescence (ATP content), read-out: IC50, growth of SCF stimulated M-07e cells
From the text: As one example, M-07e cell line (DSMZ catalog #ACC 104) is stimulated by SCF, which binds and activates c-kit tyrosine kinase receptor.

c-kit kinase domain = target: T1, c-kit kinase domain (Homo sapiens, UniProt P10721); test: c-kit kinase activity biochemical assay (AlphaScreen PY20 or 33P radiolabeled ATP detection); conditions: as measured by at least one of AlphaScreen or 33P ATP assay; ATP 10 μM in the AlphaScreen assay; read-out: IC50, inhibition of c-kit kinase activity
T1 construct: C-Kit kinase domain (starting amino acid M551, ending amino acid K949); made in house; host or cells: E. coli
T1 sequence (P10721 552-948 limits assumed): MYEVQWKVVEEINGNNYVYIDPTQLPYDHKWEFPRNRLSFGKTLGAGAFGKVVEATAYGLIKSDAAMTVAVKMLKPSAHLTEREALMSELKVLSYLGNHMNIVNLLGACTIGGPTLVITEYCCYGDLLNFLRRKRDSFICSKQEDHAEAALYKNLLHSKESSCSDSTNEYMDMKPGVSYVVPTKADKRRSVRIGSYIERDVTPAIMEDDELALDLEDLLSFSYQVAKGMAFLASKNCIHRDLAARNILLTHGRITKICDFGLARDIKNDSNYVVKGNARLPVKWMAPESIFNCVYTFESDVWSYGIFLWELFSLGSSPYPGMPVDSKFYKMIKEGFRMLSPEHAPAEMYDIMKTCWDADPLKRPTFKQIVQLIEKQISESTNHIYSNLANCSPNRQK
From the text: Compounds 1-1, 1-2, 1-3, and 1-4 of Table 1 were similarly assayed using a ^33P radiolabeled ATP for detection (Upstate USA, Charlottesville, Va.).

[2] = tested on: cells with activating c-kit mutations in the catalytic region; conditions: Ma et al., 2002, Blood 99:1741-1744; cited from earlier work

| pIC50 (c-kit kinase domain) | SMILES | pIC50 [1] | inhibition of cells with c-kit mutations in the catalytic region [2] |
| --- | --- | --- | --- |
| > 6.00 | Clc1ccc(CNc2ccc(Cc3c[nH]c4ncccc34)cn2)cc1 [Compound 1-2, (4-chloro-benzyl)-[5-(1H-pyrrolo[2,3-b]pyridin-3-ylmethyl)-pyridin-2-yl]-amine] | > 6.00 |  |
| > 6.00 | Fc1ccc(CNc2ccc(Cc3c[nH]c4ncccc34)cn2)cc1 [Compound 1-3, (4-fluoro-benzyl)-[5-(1H-pyrrolo[2,3-b]pyridin-3-ylmethyl)-pyridin-2-yl]-amine] |  |  |
| > 6.00 | Cc1ccc(CNc2ccc(Cc3c[nH]c4ncccc34)cn2)cc1 [Compound 1-4, (4-methyl-benzyl)-[5-(1H-pyrrolo[2,3-b]pyridin-3-ylmethyl)-pyridin-2-yl]-amine] |  |  |
|  | Cc1ccc(NC(=O)c2ccc(CN3CCN(C)CC3)cc2)cc1Nc1nccc(-c2cccnc2)n1 [ST1571] |  | did not inhibit |

— US20060058339A1, “Compounds modulating c-kit activity and uses therefor” (priority 2004, published 2006)
